# Values joined by “and” are separate entries in the source; they are usually repeats but may differ in a detail not shown here. Equal entries are not always repeated.
# What was measured:
# [1] = background art; cited from earlier work
# [2] = background art; cited from earlier work; remark: listed apart in the source
# [3] = tested on: Acanthocheilonema viteae; assay: Antifilarial dual infection screen in jirds: adult A. viteae burden and microfilaremia; type: in vivo, in Mongolian jirds; details: for % Macrofilarial reduction, A. viteae: day 56
# Text: (§1) Dual infections of the filarial worms Brugia pahangi and Acanthocheilonema viteae in jirds are used routinely for antifilarial screening [McCall, J. W., McTier, T. L., and Rowan, S. J., "In vivo models for evaluating potential antifilarial agents", Onchocerciasis/Filariasis (Proceedings of a Symposium sponsored by the World Health Organization), Kalamazoo, Mich., Apr. 8-10, 23-24 (1986)].
# (§2) For this dual infection screen, male Mongolian jirds weighing 50-60 g are infected SC with 10 (5 male and 5 female) adult A. viteae, transplanted under sodium pentobarbital anesthesia (48 mg/kg) from donor hamsters infected SC 8 weeks earlier. Two weeks later, 20 (10 male and 10 female) adult B. pahangi, taken from donor jirds infected IP 8 weeks earlier, are transplanted into the peritoneal cavity of each jird under sodium pentobarbital anesthesia. After an additional week, when the jirds have acceptable levels of microfilaremia, they are randomly allocated to treatment groups of 3 animals each and a nontreated group of 4-6 animals. Microfilaremia is determined on days 0 (just prior to the first dose), 4 and 56 post-treatment. Unless indicated otherwise, compounds are suspended in hydroxyethylcellulose (0.5%) - Tween 80 (0.1%) and administered SC at 100 mg/kg/day for 5 consecutive days. All jirds are killed on day 56 post-treatment to determine the effects of drugs on adults of A. viteae and B. pahangi. Live worms are identified as to species, noted as to sex, and counted. The number of dead and/or encapsulated worms is also recorded. A reduction of ≥80% in microfilaremia or ≥50% in adult worm burden (either species) compared with pre-treatment microfilaremia or non-treated control worm burden, respectively, is considered to be significant. For secondary testing with this dual infection screen, groups of 7 animals each are used. For oral dosing, drugs are dissolved or suspended in hydroxyethylcellulose - Tween 80 and administered by gavage.
# [4] = tested on: Brugia pahangi; assay: Antifilarial dual infection screen in jirds: adult B. pahangi burden; type: in vivo, in Mongolian jirds; details: day 56
# Text: as §1, §2
# [5] = tested on: adult worms; details: background art; cited from earlier work
# [6] = tested on: microfilariae; details: background art; cited from earlier work
# [7] = Aqueous solubility; details: water
# [8] = Local muscle irritation at injection site in beagle dogs; type: in vivo; details: IM, 12.5-50 mg/kg/day for 2 to 3 days
# Text: (§3) All dogs were observed frequently during each day of treatment and daily throughout the remainder of the study for any signs of reactions. In addition, the hair was shaved at the injection sites to facilitate the observation of possible tissue irritation resulting from treatment.
# [9] = tested on: Brugia pahangi; assay: Antifilarial effect in beagle dogs infected with Brugia pahangi; type: in vivo
# Text: The infective larvae of B. pahangi were produced and collected as described by McCall [J. Georgia Entomol. Soc. 16:283-293, (1981)]. The dogs were given 100 L3 of B. pahangi by subcutaneous injection (SC) into the dorsum of each hind paw or 200 L3 in one hind paw (i.e., a total inoculum of 200 L3 per dog).
# The dogs were randomly allocated to treatment groups containing 4 dogs. The dogs were divided by sex and ranked by declining baseline microfilarial counts (average count based on the 5 bleedings made before the day of treatment). Those dogs which were amicrofilaremic or had very few microfilariae were excluded from the trial. Of the remaining dogs, those with the highest baseline microfilaremias were assigned to seven-dog replicates. The sex of the dogs within three of the replicates was the same, while the fourth replicate contained dogs of both sexes. The dogs of a given sex with the highest levels of microfilaremia were placed in the same replicate. The next set of dogs of that sex with the next highest levels of microfilaremia was assigned to the next replicate, and so on until all of the replicates were filled. The dogs within each complete replicate were assigned to test groups using a table of random numbers [Ostle and Mensing, Statistics in Research, Third Edition, Iowa State University Press, Ames, Iowa, pp. 560-563, (1975)]. The test groups were likewise assigned to either control or treatment groups using the table of random numbers.
# The first day of treatment, day 0, was approximately 144 days after infection. Drugs were administered orally as a 10% suspension in HEC-Tween 80 or in soft gelatin capsules. Drugs were administered intramuscularly or subcutaneously as a 10% suspension in peanut oil or in HEC-Tween 80. Groups of four dogs served in sham-treated controls in each experiment. All of the treatments were given by IM injection in the dorsal lumbar muscles.
# as §3
# Blood was collected from each dog on days 51, 43, 27, 19, and 5 before treatment to determine baseline microfilaremias and allocate the dogs to treatment groups. Blood was then collected from all dogs on the day before treatment on day -1, on days 7, 10, 14, 21, 28, 35, 42, 49, and 56 days after treatment. All bleedings were done at approximately the same time of day (11:00-12:00 E.S.T.). Two 20-μl blood films were prepared from each sample and stained with giemsa. Microfilarial counts were made from the 2 blood films.
# The dogs were euthanized for necropsy either two or six months after the first day of treatment. Just prior to euthanasia, the dogs were given a subcutaneous injection (SC) of a two percent solution of Evans blue into the dorsum of both hind paws in order to help delineate the lymphatic vessels. This was followed at least 30 minutes later with a lethal dose of Fatal-Plus® (Vortech Pharmaceuticals, Dearborn, Mich.). A limited necropsy was performed on each dog with examination of the afferent and efferent lymphatics of both hindlimbs and the popliteal, inguinal, internal and external iliac, and lumbar lymph nodes. Any live or dead worms seen were removed. These vessels and lymph nodes were removed, teased, and soaked overnight in normal saline to allow any worms to migrate out of the tissues. The condition of the worms, their sex and number, and the location from which they were recovered were noted.
# Effectiveness against the adult parasites was determined as follows: [formula] Effectiveness against microfilariae for a given day after treatment was determined as follows: [formula]
# The adult B. pahangi counts and the microfilarial counts were compared using a one way analysis of variance (ANOVA). […]
# [10] = tested on: B. pahangi and A. viteae; assay: Antifilarial activity in jirds, dual infection, summary in words; type: in vivo; details: both oral and parenteral routes
# Text: as §1
# For this dual infection screen, male Mongolian jirds weighing 50-60 g are infected SC with 10 (5 male and 5 female) adult A. viteae, transplanted under sodium pentobarbital anesthesia (48 mg/kg) from donor hamsters infected SC 8 weeks earlier. Two weeks later, 20 (10 male and 10 female) adult B. pahangi, taken from donor jirds infected IP 8 weeks earlier, are transplanted into the peritoneal cavity of each jird under sodium pentobarbital anesthesia. After an additional week, when the jirds have acceptable levels of microfilaremia, they are randomly allocated to treatment groups of 3 animals each and a nontreated group of 4-6 animals. Microfilaremia is determined on days 0 (just prior to the first dose), 4 and 56 post-treatment. […] Live worms are identified as to species, noted as to sex, and counted. The number of dead and/or encapsulated worms is also recorded. […]
# [11] = IM, 6.25 mg/kg/day × 3, peanut oil
# [12] = IM, 12.5 mg/kg/day × 3, peanut oil
# [13] = IM, 25 mg/kg/day × 3, peanut oil
# [14] = IM, 50 mg/kg/day × 1, peanut oil
# [15] = IM, 50 mg/kg/day × 2, peanut oil
# [16] = IM, 50 mg/kg/day × 3, peanut oil
# [17] = PO, 200 mg/kg/day bid × 3, HEC-Tween 80
# [18] = SC, 50 mg/kg/day × 3, HEC-Tween 80
structure (smiles),measurement,setting,value
COC(=O)Nc1nc2ccc(C(=O)c3ccccc3)cc2[nH]1 [mebendazole],absorption,[1],poorly absorbed
same,pain and inflammation on injection,[2],cause pain and inflammation on injection
"COC(=O)Nc1nc2cc(C(N)c3ccccc3)ccc2[nH]1.Cl.Cl (racemic) [Example 4, Methyl (±)-[5-[Amino (Phenyl)Methyl]-1H-Benzimidazol-2-yl]Carbamate Dihydrochloride Salt]","% Microfilarial reduction, A. viteae, Day 4","[3]; 3.13 mg/kg/day × 5 days, SC",75%
same,"% Microfilarial reduction, A. viteae, Day 56","[3]; 3.13 mg/kg/day × 5 days, SC",50%
same,"% Macrofilarial reduction, A. viteae","[3]; 3.13 mg/kg/day × 5 days, SC",9%
same,"% Microfilarial reduction, A. viteae, Day 4","[3]; 6.25 mg/kg/day × 5 days, SC",67%
same,"% Microfilarial reduction, A. viteae, Day 56","[3]; 6.25 mg/kg/day × 5 days, SC",67%
same,"% Macrofilarial reduction, A. viteae","[3]; 6.25 mg/kg/day × 5 days, SC",27%
same,"% Microfilarial reduction, A. viteae, Day 4","[3]; 12.5 mg/kg/day × 5 days, SC",88%
same,"% Microfilarial reduction, A. viteae, Day 56","[3]; 12.5 mg/kg/day × 5 days, SC",50%
same,"% Macrofilarial reduction, A. viteae","[3]; 12.5 mg/kg/day × 5 days, SC",31%
same,"% Microfilarial reduction, A. viteae, Day 4","[3]; 100 mg/kg/day × 5 days, oral",91%
same,"% Microfilarial reduction, A. viteae, Day 56","[3]; 100 mg/kg/day × 5 days, oral",91%
same,"% Macrofilarial reduction, A. viteae","[3]; 100 mg/kg/day × 5 days, oral",81%
same,"% Microfilarial reduction, A. viteae, Day 4","[3]; 200 mg/kg/day × 5 days, oral",67%
same,"% Microfilarial reduction, A. viteae, Day 56","[3]; 200 mg/kg/day × 5 days, oral",100%
same,"% Macrofilarial reduction, A. viteae","[3]; 200 mg/kg/day × 5 days, oral",100%
same,"% Macrofilarial reduction, B. pahangi","[4]; 3.13 mg/kg/day × 5 days, SC",15%
same,"% Macrofilarial reduction, B. pahangi","[4]; 6.25 mg/kg/day × 5 days, SC",14%
same,"% Macrofilarial reduction, B. pahangi","[4]; 12.5 mg/kg/day × 5 days, SC",18%
same,"% Macrofilarial reduction, B. pahangi","[4]; 100 mg/kg/day × 5 days, oral",30%
same,"% Macrofilarial reduction, B. pahangi","[4]; 200 mg/kg/day × 5 days, oral",100%
"COC(=O)Nc1nc2cc(C(N)c3ccccc3)ccc2[nH]1 (racemic) [Example 3, Methyl (±)-[5-[Amino (Phenyl)Methyl]-1H-Benzimidazol-2-yl]Carbamate]","% Microfilarial reduction, A. viteae, Day 4","[3]; 100 mg/kg/day × 5 days, oral",83%
same,"% Microfilarial reduction, A. viteae, Day 56","[3]; 100 mg/kg/day × 5 days, oral",83%
same,"% Macrofilarial reduction, A. viteae","[3]; 100 mg/kg/day × 5 days, oral",80%
same,"% Macrofilarial reduction, B. pahangi","[4]; 1.56 mg/kg/day × 5 days, SC",23%
same,"% Macrofilarial reduction, B. pahangi","[4]; 6.25 mg/kg/day × 5 days, SC",0%
same,"% Macrofilarial reduction, B. pahangi","[4]; 25 mg/kg/day × 5 days, SC",75%
same,"% Macrofilarial reduction, B. pahangi","[4]; 100 mg/kg/day × 5 days, SC",100%
same,"% Macrofilarial reduction, B. pahangi","[4]; 100 mg/kg/day × 5 days, oral",52%
CCN(CC)C(=O)N1CCN(C)CC1 [Diethylcarbamazine],activity against adult worms (macrofilaricidal),[5],"kill adults of lymphatic filariae in some, but far from all patients"
same,activity against microfilariae,[6],has the ability to destroy microfilariae
"COC(=O)Nc1nc2cc(C(N)c3ccc(F)cc3)ccc2[nH]1 (racemic) [Example 1, Methyl (±)-[5-[Amino(4-Fluorophenyl)Methyl]-1H-Benzimidazol-2-yl]Carbamate]","% Microfilarial reduction, A. viteae, Day 4","[3]; 25 mg/kg/day × 5 days, SC",0%
same,"% Macrofilarial reduction, A. viteae","[3]; 25 mg/kg/day × 5 days, SC",88%
same,solubility,[7],180 µg/mL
same,"% Macrofilarial reduction, B. pahangi","[4]; 1.56 mg/kg/day × 5 days, SC",16%
same,"% Macrofilarial reduction, B. pahangi","[4]; 6.25 mg/kg/day × 5 days, SC",92%
same,"% Macrofilarial reduction, B. pahangi","[4]; 12.5 mg/kg/day × 5 days, SC",100%
same,"% Macrofilarial reduction, B. pahangi","[4]; 25 mg/kg/day × 5 days, SC",100%
same,local muscle irritation,[8],no local muscle irritation
same,Dogs cured/Treated,[9]; [11],0/4
same,Percent reduction Macrofilariae,[9]; [11],38%
same,Percent reduction Microfilariae,[9]; [11],50%
same,Dogs cured/Treated,[9]; [12],1/4
same,Percent reduction Macrofilariae,[9]; [12],91%
same,Percent reduction Microfilariae,[9]; [12],76%
same,Dogs cured/Treated,[9]; [13],4/4
same,Percent reduction Macrofilariae,[9]; [13],100%
same,Percent reduction Microfilariae,[9]; [13],72%
same,Dogs cured/Treated,[9]; [14],0/4
same,Percent reduction Macrofilariae,[9]; [14],85%
same,Percent reduction Microfilariae,[9]; [14],55%
same,Dogs cured/Treated,[9]; [15],2/4
same,Percent reduction Macrofilariae,[9]; [15],92%
same,Percent reduction Microfilariae,[9]; [15],59%
same,Dogs cured/Treated,[9]; [16],4/4
same,Percent reduction Macrofilariae,[9]; [16],100%
same,Percent reduction Microfilariae,"[9]; IM, 50 mg/kg/day × 3, peanut oil, 50 mg/kg/day",100% and 99%
same,cure of B. pahangi infections,"[9]; IM, 12.5-50 mg/kg/day for 2 to 3 days",cured dogs of B. pahangi infections
same,Percent reduction Macrofilariae,[9]; [17],93%
same,Percent reduction Microfilariae,[9]; [17],97%
same,Dogs cured/Treated,"[9]; PO, 200 mg/kg/day bid × 3, HEC-Tween 80, necropsied 6 months",1/3
same,Dogs cured/Treated,[9]; [18],1/4
same,Percent reduction Macrofilariae,[9]; [18],76%
same,Percent reduction Microfilariae,[9]; [18],78%
same,cure of B. pahangi infections,[9]; administered orally,also curative when administered orally
same,antifilarial activity in jirds,[10],outstanding antifilarial activity
"COC(=O)Nc1nc2cc(C(=O)c3ccc(F)cc3)ccc2[nH]1 [Flubendazole, methyl [5-(4-fluorobenzoyl)-1H-benzimidazol-2-yl]carbamate]",absorption,[1],poorly absorbed
same,solubility,[7],45 µg/mL
same,pain and inflammation on injection,[2],cause pain and inflammation on injection
CC[C@H](C)[C@H]1O[C@]2(CC[C@@H]1C)C[C@@H]1C[C@@H](C/C=C(\C)[C@@H](O[C@H]3C[C@H](OC)[C@@H](O[C@H]4C[C@H](OC)[C@@H](O)[C@H](C)O4)[C@H](C)O3)[C@@H](C)/C=C/C=C3\CO[C@@H]4[C@H](O)C(C)=C[C@@H](C(=O)O1)[C@]34O)O2 [ivermectin],activity against adult worms (macrofilaricidal),[5],without effect on adult worms
same,activity against microfilariae,[6],outstanding activity against microfilariae
Cc1ccc(C(=O)Nc2ccc(S(=O)(=O)O)c3cc(S(=O)(=O)O)cc(S(=O)(=O)O)c23)cc1NC(=O)c1cccc(NC(=O)Nc2cccc(C(=O)Nc3cc(C(=O)Nc4ccc(S(=O)(=O)O)c5cc(S(=O)(=O)O)cc(S(=O)(=O)O)c45)ccc3C)c2)c1 [Suramin],activity against adult worms (macrofilaricidal),[5],macrofilaricidal action

# Reference: US5278181A, “Soluble alkyl[5-[amino (phenyl)methyl]-1H-benzimidazol-2-yl] carbamate anthelmintics” (priority 1992, dated 1994)
